Measured values reported in publication PMC9236245, “Glycyrrhiza uralensis promote the metabolism of toxic components of Aconitum carmichaeli by CYP3A and alleviate the development of chronic heart failure” (PLoS ONE, 2022).
Several values for one entry are separate records, joined by “and”; a condition that tells them apart may be missing. Equal values may be shown once.

Experiments:
CYP450 = assay: Effect of CYP450 inhibitors on metabolism of AC, MA and HA in rat liver microsomes; assay type: in vitro ADME; details: RLMs
Protocol: (§1) 1 mg / ML microsome 100 μL, PBS 75 μL and aconitine alkaloids 5 μL (AC, MA and HA: 1 mmol / L) were added. 20 μL NADPH (10 mmol / L) was added to start the reactionand, AC and HA were incubated for 90 min, MA were incubated for 120 min. The reaction was terminated by adding 200 μL glacial acetonitrile, 12 000 r / min at 4°C for 10 min, and 20 μL supernatant was used for HPLC.
Added microsome 100 μL, PBS 75 μL, aconitine alkaloids 5 μL, inhibitors (furatheophylline: 0.2 mmol / L, sulfabendazole: 0.4 mmol / L, quinidine: 0.1 mmol / L, ketoconazole: 0.04 mmol / L) 10 μL. The operation of HPLC was as above. The effect of CYP450 inhibitors on the metabolism of Aconitum alkaloids was calculated. The formula is as follows:
% inhibition = Peak area of X after adding inhibitor / Peak area of X before adding inhibitor × 100%, where X is metabolites of AC, MA and HA.

[1] = Metabolism of AC, MA and HA in rat liver microsomes by HPLC; assay type: in vitro ADME; details: NADPH
Protocol: Agilent C18 column (4.60 mm × 150 mm, 5μm), mobile phase A was 20 mmol / L ammonium acetate and 0.1% formic acid aqueous solution, mobile phase B was methanol, isocratic elution, A: B = 60:40, flow rate was 1 ml / min, detection wavelength was 240 nm, column temperature was 30°C, injection volume was 20 μL.
as §1

[2] = Plasma concentration of AC, MA and HA in rats by LC-MS/MS; assay type: in vivo, rat; parameters: Plasma concentration: unit not given here; details: for plasma concentration with compatibility of Glycyrrhizae and Aconitum vs Aconitum alone: 2 mL/kg by gavage; for Plasma concentration: single animals
Protocol: 12 SD rats were randomly divided into Aconitum and Glycyrrhizae combind with Aconitum group, 6 rats in each group, 2 mL / kg was given by gavage respectively.

[3] = Metabolic stability (t1/2, CLint) of AC, MA and HA in RLMs of pretreated rats; details: for microsomal CLint at 25 µM / half-life at 25 µM: SD, rat, microsomes
in vitro = details: SD, rat, microsomes
[4] = AC 90 min, ketoconazole stock 0.04 mmol/L
[5] = MA 120 min, ketoconazole stock 0.04 mmol/L
[6] = Aconitum 2 mL/kg gavage, 10 min
[7] = Aconitum 2 mL/kg gavage, 20 min
[8] = Aconitum 2 mL/kg gavage, 30 min
[9] = Aconitum 2 mL/kg gavage, 45 min
[10] = Aconitum 2 mL/kg gavage, 60 min
[11] = Aconitum 2 mL/kg gavage, 90 min
[12] = Aconitum 2 mL/kg gavage, 120 min
[13] = Aconitum 2 mL/kg gavage, 240 min
[14] = Aconitum 2 mL/kg gavage, 360 min
[15] = Aconitum 2 mL/kg gavage, 480 min
[16] = Glycyrrhizae + Aconitum 2 mL/kg gavage, 10 min
[17] = Glycyrrhizae + Aconitum 2 mL/kg gavage, 20 min
[18] = Glycyrrhizae + Aconitum 2 mL/kg gavage, 30 min
[19] = Glycyrrhizae + Aconitum 2 mL/kg gavage, 45 min
[20] = Glycyrrhizae + Aconitum 2 mL/kg gavage, 60 min
[21] = Glycyrrhizae + Aconitum 2 mL/kg gavage, 90 min
[22] = Glycyrrhizae + Aconitum 2 mL/kg gavage, 120 min
[23] = Glycyrrhizae + Aconitum 2 mL/kg gavage, 240 min
[24] = Glycyrrhizae + Aconitum 2 mL/kg gavage, 360 min
[25] = Glycyrrhizae + Aconitum 2 mL/kg gavage, 480 min
[26] = RLMs of rats pretreated with Glycyrrhizae 0.33 g/kg
[27] = RLMs of rats pretreated with Glycyrrhizae 1 g/kg
[28] = RLMs of rats pretreated with Glycyrrhizae 3 g/kg
[29] = RLMs of rats pretreated with Phenobarbital 0.08 g/kg
[30] = t1/2, RLMs of rats pretreated with Glycyrrhizae 0.33 g/kg
[31] = t1/2, RLMs of rats pretreated with Glycyrrhizae 1 g/kg
[32] = t1/2, RLMs of rats pretreated with Glycyrrhizae 3 g/kg
[33] = t1/2, RLMs of rats pretreated with Phenobarbital 0.08 g/kg

SMILES	plasma concentration with compatibility of Glycyrrhizae and Aconitum vs Aconitum alone [2]	Plasma concentration [2, 6]	Plasma concentration [2, 7]	Plasma concentration [2, 8]	Plasma concentration [2, 9]	Plasma concentration [2, 10]	Plasma concentration [2, 11]	Plasma concentration [2, 12]	Plasma concentration [2, 13]	Plasma concentration [2, 14]	Plasma concentration [2, 15]	Plasma concentration [2, 16]	Plasma concentration [2, 17]	Plasma concentration [2, 18]	Plasma concentration [2, 19]	Plasma concentration [2, 20]	Plasma concentration [2, 21]	Plasma concentration [2, 22]	Plasma concentration [2, 23]	Plasma concentration [2, 24]	also measured
CC(=O)N1CCN(c2ccc(OCC3COC(Cn4ccnc4)(c4ccc(Cl)cc4Cl)O3)cc2)CC1 (centres unmarked) [ketoconazole]																					production of AC metabolite A1, difference vs control (CYP450; [4]): -0.2416 ± 0.0644; production of AC metabolite A2, difference vs control (CYP450; [4]): -0.4708 ± 0.02905; production of AC metabolite A3, difference vs control (CYP450; [4]): -0.4643 ± 0.06743; production of HA metabolite H2, difference vs control (CYP450; HA 90 min): -0.4161 ± 0.01634; production of HA metabolite H1, difference vs control (CYP450; HA 90 min, ketoconazole stock 0.04 mmol/L): -0.4482 ± 0.05543; production of MA metabolite M1, difference vs control (CYP450; [5]): -0.4085 ± 0.07279; production of MA metabolite M2, difference vs control (CYP450; [5]): -0.3312 ± 0.06126; production of MA metabolite M3, difference vs control (CYP450; [5]): -0.3905 ± 0.01824
CCN1C[C@]2(COC)[C@H](O)C[C@H](OC)[C@@]34[C@@H]5C[C@@]6(O)[C@H](OC(=O)c7ccccc7)[C@@H]5[C@@](OC(C)=O)([C@@H]([C@H](OC)[C@H]23)[C@@H]14)[C@@H](O)[C@@H]6OC [AC, aconitine]	significantly lower	0.0562 and 0.0808 and 0.0292 and 0.0385 and 0.0141	0.0945 and 0.121 and 0.0589 and 0.0443 and 0.0407	0.0925 and 0.117 and 0.0557 and 0.0722 and 0.05	0.118 and 0.156 and 0.082 and 0.0566 and 0.0273	0.13 and 0.176 and 0.0973 and 0.0545 and 0.0474	0.143 and 0.138 and 0.108 and 0.0529 and 0.0439	0.0793 and 0.127 and 0.0603 and 0.0355 and 0.024	0.0629 and 0.0516 and 0.0251 and 0.0305 and 0.0211	0.0287 and 0.0253 and 0.00749 and 0.0187 and 0.0173	0.0164 and 0.00823 and 0.0095 and 0.00724 and 0.00602	0.0175 and 0.0293 and 0.0191 and 0.0122 and 0.0147	0.0115 and 0.059 and 0.0448 and 0.017 and 0.0239	0.0218 and 0.0596 and 0.0401 and 0.018 and 0.0426	0.0355 and 0.0389 and 0.0637 and 0.0227 and 0.0397	0.0309 and 0.0518 and 0.0337 and 0.0343 and 0.0443	0.018 and 0.039 and 0.0371 and 0.0238 and 0.0457	0.0163 and 0.0373 and 0.0236 and 0.0131 and 0.0446	0.00197 and 0.0253 and 0.00871 and 0.00772 and 0.0267	0.00413 and 0.00482 and 0 and 0.00225 and 0.0062	metabolites produced in RLMs [1]: three metabolites (A1-A3); Plasma concentration [2, 25]: 0 (4×) and 0.00207; microsomal CLint at 25 µM ([3]; RLMs of Control rats): 10.8 ± 0.4 µL/min/mg; microsomal CLint at 25 µM [3, 26]: 14.7 ± 0.23 µL/min/mg; microsomal CLint at 25 µM [3, 27]: 15.5 ± 0.46 µL/min/mg; microsomal CLint at 25 µM [3, 28]: 11.6 ± 0.4 µL/min/mg; microsomal CLint at 25 µM [3, 29]: 16.3 ± 0.61 µL/min/mg; half-life at 25 µM ([3]; t1/2, RLMs of Control rats): 4.28 ± 0.159 h; half-life at 25 µM [3, 30]: 3.15 ± 0.05 h; half-life at 25 µM [3, 31]: 2.99 ± 0.0877 h; half-life at 25 µM [3, 32]: 3.99 ± 0.138 h; half-life at 25 µM [3, 33]: 2.84 ± 0.108 h
Cc1nc2c([nH]1)c(=O)n(C)c(=O)n2Cc1ccco1 [furaphylline]																					effect on the metabolism of AC, MA and HA (CYP450; stock 0.2 mmol/L): no significant effect
COC[C@@]12CC[C@H](OC)[C@]34C(C([C@H](OC)[C@H]13)[C@]1(OC(C)=O)[C@H]3[C@@H](OC(=O)c5ccccc5)[C@](O)(C[C@H]34)[C@@H](OC)[C@@H]1O)N(C)C2 [HA, hypaconitine]	significantly lower	0.964 and 1.77 and 0.583 and 0.492 and 0.28	1.07 (2×) and 1.95 and 0.668 and 0.566	1.2 and 2.66 and 1.06 and 0.923 and 0.551	1.22 and 2.65 and 1.35 and 0.88 and 0.451	1.83 and 3.39 and 1.29 and 0.737 and 0.573	2.02 and 2.54 and 1.07 and 0.724 and 0.474	1.44 and 2.32 and 0.775 and 0.501 and 0.434	0.658 and 0.936 and 0.168 and 0.375 and 0.151	0.287 and 0.417 and 0.0407 and 0.175 and 0.0302	0.104 and 0.179 and 0.00087 and 0.0398 and 0	0.519 and 1.06 and 0.945 and 0.416 and 0.07	0.52 and 1.66 and 1.4 and 0.661 and 0.18	0.774 and 1.59 and 1.79 and 1.06 and 0.53	1.02 and 1.61 and 1.74 and 0.809 and 0.75	1.15 and 1.58 and 1.52 and 0.84 and 0.77	0.845 and 1.4 and 1.33 and 0.925 and 0.66	0.763 and 1.16 and 1.07 and 0.744 and 0.75	0.288 and 0.492 and 0.287 and 0.316 and 0.924	0.34 and 0.239 and 0.0767 and 0.225 and 0.0462	metabolites produced in RLMs [1]: two metabolites; Plasma concentration [2, 25]: 0 and 0.104 and 0.0428 and 0.0921 and 0.181; microsomal CLint (in vitro; RLMs of Control rats): 10.5 ± 0.23 µL/min/mg; microsomal CLint (in vitro; [26]): 12.1 ± 0.23 µL/min/mg; microsomal CLint (in vitro; [27]): 13.6 ± 0.4 µL/min/mg; microsomal CLint (in vitro; [28]): 11.6 ± 0.4 µL/min/mg; microsomal CLint (in vitro; [29]): 14 ± 0.4 µL/min/mg; half-life (in vitro; t1/2, RLMs of Control rats): 4.39 ± 0.095 h; half-life (in vitro; [30]): 3.81 ± 0.0717 h; half-life (in vitro; [31]): 3.4 ± 0.1 h; half-life (in vitro; [32]): 3.99 ± 0.138 h; half-life (in vitro; [33]): 3.3 ± 0.0943 h
COC[C@]12CN(C)[C@@H]3[C@@H]4[C@H](OC)[C@H]1[C@@]3([C@@H](OC)C[C@H]2O)[C@@H]1C[C@@]2(O)[C@H](OC(=O)c3ccccc3)[C@@H]1[C@]4(OC(C)=O)[C@@H](O)[C@@H]2OC [MA, mesaconitine]	significantly lower	0.104 and 0.259 and 0.0838 and 0.0908 and 0.0264	0.112 and 0.306 and 0.0799 and 0.129 and 0.0672	0.141 (2×) and 0.315 and 0.127 and 0.051	0.131 and 0.358 and 0.138 and 0.0993 and 0.054	0.209 and 0.452 and 0.123 and 0.0971 and 0.0527	0.212 and 0.258 and 0.0872 and 0.0822 and 0.0482	0.151 and 0.279 and 0.0558 and 0.0592 and 0.0337	0.067 and 0.0621 and 0.0139 and 0.0294 and 0.00782	0.0249 and 0.0364 and 0 (2×) and 0.0208	0.00513 and 0 (4×)	0.0924 and 0.061 and 0.0433 and 0.0157 and 0.04	0.0183 and 0.062 and 0.0517 and 0.0185 and 0.0482	0.0382 and 0.0796 and 0.0589 and 0.0258 and 0.0568	0.0446 and 0.0702 and 0.0601 and 0.0125 and 0.0651	0.0304 and 0.0692 and 0.0418 and 0.0207 and 0.0668	0.038 and 0.0469 and 0.0364 and 0.0228 and 0.0572	0.0276 and 0.0368 and 0.0358 and 0.0326 and 0.0683	0.00794 and 0.0109 and 0.0106 and 0.00771 and 0.0278	0.00417 and 0.00296 and 0 and 0.0025 and 0.0106	Plasma concentration [2, 25]: 0; CLint ([3]; RLMs of Control rats): 16.00±0.40 μL/min/mg protein; t1/2 ([3]; RLMs of Control rats): 2.8887 ± 0.0722 h; CLint [3, 26]: 17.73±0.23 μL/min/mg protein; t1/2 [3, 26]: 2.6055 ± 0.0337 h; CLint [3, 27]: 18.80±0.04 μL/min/mg protein; t1/2 [3, 27]: 2.4582 ± 0.0522 h; CLint [3, 28]: 17.87±0.83 μL/min/mg protein; t1/2 [3, 28]: 2.5895 ± 0.118 h; CLint [3, 29]: 19.60±0.40 μL/min/mg protein; t1/2 [3, 29]: 2.358 ± 0.048 h
